Assay results from paper PMC12463120, “Phenylalanine‐Based DNA‐Encoded Chemical Libraries for the Discovery of Potent and Selective Small Organic Ligands Against Markers of Cancer and Immune Cells” (Advanced Science, 2025).
“Also recorded” adds a separate entry of the source.

What was measured:
NK-92 cells = assay: In vitro interferon-gamma release assay on NK-92 cells; type: cell-based, human; settings: serial dilution from 7.5 µM, 24 h
Method: plate (20 µL/well). Test compounds (300 nM, in 175 µL of FACS buffer) were added to the wells containing the beads. Plates were further incubated in the dark at room temperature for 1 hour and subsequently centrifuged at 2’500 rpm at 4 °C for 3 min. Beads were washed and resuspended in FACS buffer (200 µL). Data were acquired halting the measurement at 10’000 events on a Cytoflex S flow cytometer (Beckman Coulter) and analyzed using the FlowJo software v10 (BD Biosciences).
2.19 In vitro interferon-gamma release assay
Compounds 26 and 30 were tested for their ability to induce interferon-gamma (IFN-γ) release upon incubation with NK-cells. NK-92 cells were initially starved for 4 h in plain RPMI medium. […] After 24 h, cell-free supernatants were collected, and the concentration of IFN-γ was measured using the ELISA MAXTM Set Human IFN-γ kit (BioLegend). […]
The sections were blocked with 20% FCS (Invitrogen) and 3% BSA in PBS (pH 7.4) for 30 min and washed three times with PBS (pH 7.4). […] Images were recorded on a CR-35 Bio scanner and processed with the AIDA image analysis […]
2.21 Quantitative in vivo biodistribution studies […]
Figure S39. […] After 24 hours of incubation, IFN-γ levels in the culture supernatant were measured by ELISA. […]

NKG2D-Fc = target: T1, NKG2D-Fc (Homo sapiens, UniProt P26718); assay: Size-exclusion chromatography co-elution with NKG2D-Fc; type: binding
T1 construct: the extracellular domain of NKG2D was fused with an IgG Fc fragment; made in house; host or cells: CHO cells
T1 sequence (P26718 73-216 limits assumed): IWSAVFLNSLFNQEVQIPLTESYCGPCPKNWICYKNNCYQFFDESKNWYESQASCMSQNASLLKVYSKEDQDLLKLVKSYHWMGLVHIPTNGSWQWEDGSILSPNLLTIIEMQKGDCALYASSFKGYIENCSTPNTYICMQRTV

In the case of `CC(C)Oc1ccc(-c2cccc(C[C@H](NC(=O)c3ccccc3-c3ccc(C(F)(F)F)cc3)C(=O)N[C@@H](CCCCNC(=S)Nc3ccc4c(c3)C(=O)OC43c4ccc(O)cc4Oc4cc(O)ccc43)C(=O)O)c2)c(F)c1` [compound 30], the “IFN-γ release by NK-92 cells” value (NK-92 cells) was “did not induce IFN-γ release; also recorded: not found to induce the release” and the “co-elution with NKG2D-Fc in size-exclusion chromatography” value (NKG2D-Fc) was “kinetically stable complex”.
